Laboratory results reported in patent publication US10752617B2 (GALDERMA RESEARCH & DEVELOPMENT, priority 2014, dated 2020).

Key:
[1] = biological target: T1, GAL4-RORγ (GAL4 DBD fused to the ROR gamma ligand-binding domain) (Homo sapiens, UniProt P51449); assay: GAL4-RORγ transactivation (luciferase reporter, HG5LN HeLa line); format: cell-based; conditions: HG5LN HeLa cells, 18 hours incubation, luciferase luminescence, read-out: IC50 hRORg
T1 construct: expressed in transfected cells; host or cells: HG5LN (HeLa line with GAL4-responsive luciferase reporter)
T1 sequence (P51449 269-508 limits assumed): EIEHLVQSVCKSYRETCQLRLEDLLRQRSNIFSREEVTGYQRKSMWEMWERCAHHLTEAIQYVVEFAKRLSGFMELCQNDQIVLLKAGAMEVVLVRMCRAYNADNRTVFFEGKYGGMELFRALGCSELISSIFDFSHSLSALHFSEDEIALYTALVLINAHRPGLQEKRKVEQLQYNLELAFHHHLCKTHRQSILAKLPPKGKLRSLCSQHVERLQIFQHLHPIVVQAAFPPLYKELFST
Text: (§1) In the tables described above, the median inhibitory concentrations IC50 for the compounds belonging to formula (I) according to the invention have been given according to the following models:
GAL4-RORγ Transactivation
The RORγ transactivation model was developed from the line HG5LN, which is a HeLa line that stably expresses a luciferase reporter gene controlled by a pentamer of the GAL4 recognition domain of yeast and of a β-globin promoter. The HG5LN line was stably transfected by the DNA-binding domain (DBD) of GAL4 fused to the ROR gamma ligand-binding domain (LBD). Molecules that inhibit the ROR gamma constitutive activity reduce the luciferase expression, thus leading to a reduction in the emitted luminescence.
The cells are seeded in 384-well plates (5000 cells in 45 μL/well of culture medium containing 10% fetal calf serum) and incubated for 4 hours at 37° C., 5% CO2. 5 μL of the test molecules (compounds described in the tables described above) are then added to each well and the plates are incubated for 18 hours at a temperature of 37° C. under 5% of CO2. 20 μL of luciferase substrate (Promega) are added to each well and the luminescence emitted is read by a microplate reader.
The luminescence units (“RLU”) are normalized by positive controls (“POS” containing a saturated concentration of N-(2,2,2-trifluoroethyl)-N-[4-[2,2,2-trifluoro-1-hydroxy-1-(trifluoromethyl)ethyl]phenyl])benzenesulfonamide and negative controls (“NEG” containing DMSO): % inhibition=((RLU−NEG)*100)/(POS−NEG). The IC50 values are calculated from a 4-parameter logistic model using the XLFit software (IDBS).

[2] = tested on: IL-17A secretion by CD4+ cells; assay: IL-17A secretion by activated CD4+ cells (HTRF); format: cell-based; conditions: 96 h; human CD4+ cells activated with anti-CD3 and anti-CD28, 4 days of incubation, inhibitors 1000 nM to 0.05 nM; read-out: IC50 hCD4/IL17
Procedure: as §1
This model allows measurement of the effect of inhibitors on IL-17A secretion by CD4+ cells. The cells are frozen CD4+ cells (STEMCELL, #70026), isolated from peripheral human blood and activated with anti-CD3 and anti-CD28 antibodies. The amount of IL-17a secreted is measured by the TR-FRET (kit HTRF® Human Interleukin 17A (Cisbio, #64H17PEC)) technology.
The cells are rapidly thawed, resuspended in their culture medium (RPMI inactivated 10% FCS) supplemented with soluble anti-CD28 antibodies and seeded (100 000 cells/well) in 96-well plates precoated with anti-CD3 antibodies. The cells are then treated with the ranges of inhibitors to be tested (from 1000 nM to 0.05 nM, 0.1% DMSO). After 4 days of incubation, the HTRF signal is measured using a microplate reader (λexcitation=337 nm, λemission=620/665 nm). The ratios obtained (665/620) are normalized relative to the positive control (cells activated with anti-CD3 and anti-CD28, 0.1% DMSO). The IC50 values are calculated from a 4-parameter logistic model using the XLFit software (IDBS).

IC50 [1] [nM]	IC50 [2] [nM]	Structure (SMILES)
< 100	< 100	CCc1ccc(N(CC(C)C)S(=O)(=O)c2ccc3c(CN4CCOCC4)n[nH]c3c2)cc1 [Compound 64, 3-morpholin-4-ylmethyl-1H-indazole-6-sulfonic acid (4-ethylphenyl)isobutylamide]
> 1000	> 1000	Cc1cc(C)c(N(CC(C)C)S(=O)(=O)c2ccc3c(cnn3CC3CCOCC3)c2)cn1 [Compound 71, 1-(tetrahydropyran-4-ylmethyl)-1H-indazole-5-sulfonic acid (4,6-dimethylpyridin-3-yl)isobutylamide]
100 to 1000	100 to 1000	CC(C)CN(c1ccc(N(C)C)cc1)S(=O)(=O)c1ccc2c(cnn2CC2CCOCC2)c1 [Compound 72, 1-(tetrahydropyran-4-ylmethyl)-1H-indazole-5-sulfonic acid (4-dimethylaminophenyl)isobutylamide]

Second part, the compound before the results:

Structure (SMILES)	IC50 [1] [nM]	IC50 [2] [nM]
CCc1ccc(N(CC(C)C)S(=O)(=O)c2ccc3c(cnn3CC3COC3)c2)cc1 [Compound 37, N-(4-ethylphenyl)-N-isobutyl-1-(oxetan-3-ylmethyl)-1H-indazole-5-sulfonamide]	100 to 1000	< 100
CCc1ccc(N(CC(C)C)S(=O)(=O)c2ccc3c(cnn3CC3CCOCC3)c2)cc1 [Compound 39, N-(4-ethylphenyl)-N-isobutyl-1-((tetrahydro-2H-pyran-4-yl)methyl)-1H-indazole-5-sulfonamide]	100 to 1000	100 to 1000
COC(=O)c1ccc(N(CC(C)C)S(=O)(=O)c2ccc3c(cnn3CC3CCOCC3)c2)c(C)c1 [Compound 56, methyl 4-{isobutyl[1-(tetrahydropyran-4-ylmethyl)-1H-indazole-5-sulfonyl]amino}-3-methylbenzoate]	100 to 1000	< 100
CCc1ccc(N(CC(C)C)S(=O)(=O)c2ccc3c(CC4CCOCC4)n[nH]c3c2)cc1 [Compound 63, 3-(tetrahydropyran-4-ylmethyl)-1H-indazole-6-sulfonic acid (4-ethylphenyl)isobutylamide]	< 100	< 100
